Test results reported in patent publication US6407099B1, “Arylpiperidinopropanol and arylpiperazinopropanol derivatives and pharmaceuticals containing the same” (Suntory Limited, priority 1997, dated 2002).

Experiments:
DBA/2N type mice = experiment: Audiogenic seizure suppressing effect; format: in vivo; settings: compound 10 mg/kg, i.p., audio stimulus after 20 minutes, seizure score; for inhibition in vivo at 10 mg/kg: Mus musculus, ip, 20 min, read-out: Antiseizure effect (suppression rate %); for Antiseizure effect (suppression rate %): 10 mg/kg
Procedure: Audiogenic Seizure Suppressing Effect
The audiogenic seizure suppressing effect of the compounds was evaluated by the method of Sarro et al. [G. B. De Sarro et al., Br. J. Pharmacol., 93, 247 (1988)]. That is, the compound dissolved in 10% 2-hydroxypropyl-β-cyclodextrin was administered intraperitoneally to DBA/2N type mice (male, 3 weeks old). After 20 minutes, a supersonic washer was used to apply audio stimulus of at least 90 dB for 1 minute. The wild running (WR), clonic seizures (clonus), tonic seizures (tonus), and the respiratory arrest (RA) were observed. The seizure suppressing effect was evaluated from the rate of suppression of the average value of the seizure score found as 0=no response, 1=WR, 2=clonus, 3=tonus, and 4=RA.

Dopamine D2 receptor = molecular target: T1, Dopamine D2 receptor (Rattus norvegicus, UniProt P61169); experiment: Dopamine D2 receptor blocking action ([^3H] raclopride, striatum membrane fraction); format: binding, Wistar male rats; settings: 1.0 nM [^3H] raclopride, 25° C., 1 hour
T1 construct: membrane fraction prepared from the striatum of Wistar male rats; from tissue; host or cells: rat striatum membrane fraction
Procedure: Dopamine D2 Receptor Blocking Action
57 μl of the membrane fraction prepared from the striatum of Wistar male rats (6 weeks old) was incubated together with the compound and 1.0 nM [^3H] raclopride in a buffer at 25° C. for 1 hour. A GF/C glass filter (0.1% polyethylene imine treatment) was used for B/F separation. A beta plate was used for measurement of the radioactivity to evaluate the effect of the compound.

Acute toxicity test = settings: male, mouse, in vivo, iv, ddY mice, death rate up to 24 hours after administration
Procedure: A pharmaceutical preparation was administered intravenously to ddY mice (male, 6 weeks old). The 50% lethal dosage LD50 of the acute toxicity was calculated by an ordinary method from the death rate up to 24 hours after administration.

Sodium channel = experiment: Inhibitory effect of veratrizine-induced sodium channel activity (synaptozome membrane potential, Rhodamine 6G); format: biochemical, Wistar rats; settings: compound 0.1 μM; rat brain synaptozomes, veratrizine-induced depolarization
Description: Inhibitory Effect of Veratrizine-induced Sodium Channel Activity

T-type Ca^2+ channel = experiment: T-type calcium channel inhibitory effect (whole-cell patch clamp, hippocampal CA1 pyramidal cells); format: cell-based, Wistar rats; settings: rat hippocampal CA1 pyramidal cells; peak current after 1 minute of application
Procedure: T-Type Calcium Channel Inhibitory Effect
The hippocampal CA1 pyramidal cells were isolated from Wistar rats (female, 1 week old) in according to the method reported by Takahashi et al. [K. Takahashi et al.; J. Pharmacol. Exp. Ther., 256, 169 (1991)] and the T-type calcium current was measured under conditions of a fixed membrane potential using the whole-cell configuration of the patch clamp technique. The effects of the compounds were evaluated from the rate of suppression of the peak current after 1 minute of application using the concentration clamp method.

lipid peroxidation = experiment: Lipid peroxidation suppressing effect (brain membrane preparation, malonaldehyde and 4-hydroxyalkenals); format: biochemical, Wistar rats; settings: rat brain membrane preparation, 37° C., 30 minutes
Procedure: Lipid Peroxidation Suppressing Effect
The whole brains of Wistar rats (10 weeks old, male) were excised and homogenized in the 10 times volumes of 50 mM phosphate-buffered solution (pH=7.4) (hereinafter referred to as PBS). The centrifuged supernatent was further diluted fourfold and the result was used as the brain membrane preparation. The membrane preparation was incubated in the presence of vehicle (0.5% DMSO) or compound at 37° C. for 30 minutes and an automatic oxidation reaction promoted. The reaction was stopped by 35% perchloric acid, then the total of the main decomposition products of the peroxidized lipids present in the centrifuged supernatent, that is, malonaldehyde and 4-hydroxyalkenals, was measured using a BIOXYTECH®/LPO-586™ peroxidized lipid colorimetric assay kit (OXIS International, Inc.) and used as an indicator of the lipid peroxidation.

T1 sequence (P61169 whole entry): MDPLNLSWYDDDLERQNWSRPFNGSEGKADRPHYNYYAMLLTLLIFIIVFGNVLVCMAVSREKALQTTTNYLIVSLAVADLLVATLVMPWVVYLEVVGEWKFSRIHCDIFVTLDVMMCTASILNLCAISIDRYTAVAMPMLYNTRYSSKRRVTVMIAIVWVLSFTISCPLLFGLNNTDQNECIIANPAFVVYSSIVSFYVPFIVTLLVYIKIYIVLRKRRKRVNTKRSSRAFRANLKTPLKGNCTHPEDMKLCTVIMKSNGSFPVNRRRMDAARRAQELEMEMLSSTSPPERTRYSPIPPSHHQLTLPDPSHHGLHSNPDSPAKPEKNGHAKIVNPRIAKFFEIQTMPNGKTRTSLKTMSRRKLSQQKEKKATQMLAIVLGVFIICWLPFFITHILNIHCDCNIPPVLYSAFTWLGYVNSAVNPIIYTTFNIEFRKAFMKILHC

Cc1cc(N)c(C)c(C)c1OC[C@@H](O)CN1CCN(c2ccc(Cc3ccc(F)cc3)cc2)CC1 [Compound 40, (2S)-1-[(4-amino-2,3,6-trimethyl)phenoxy]-3-[4-(4-(4-fluorophenyl)methylphenyl)piperazin-1-yl]-2-propanol]
inhibition in vivo at 10 mg/kg (DBA/2N type mice): 80% | IC50 (Dopamine D2 receptor): 12 µM | LD50 at 24 h (Acute toxicity test): 49.1 mg/kg

Nc1ccc(OC[C@@H](O)CN2CCC(c3ccc(Oc4ccccc4)cc3)CC2)cc1 [Compound 25, (2S)-1-(4-aminophenoxy)-3-[4-(4-phenoxyphenyl)piperidin-1-yl]-2-propanol]
inhibition in vivo at 10 mg/kg (DBA/2N type mice): 58% | Anti-veratrizine effect (inhibiting rate %) (Sodium channel): 21%

COc1ccc(N)cc1OC[C@@H](O)CN1CCN(c2ccc(Cc3ccc(F)cc3)cc2)CC1 [Compound 44, (2S)-1-[(5-amino-2-methoxy)phenoxy]-3-[4-(4-(4-fluorophenyl)methylphenyl)piperazin-1-yl]-2-propanol]
inhibition in vivo at 10 mg/kg (DBA/2N type mice): 80%

Cc1cc(OC[C@@H](O)CN2CCN(c3ccc(Cc4ccc(F)cc4)cc3)CC2)c(C)c(C)c1N [Compound 28, (2S)-1-[(4-amino-2,3,5-trimethyl)phenoxy]-3-[4-(4-(4-fluorophenyl)methylphenyl)piperazin-1-yl]-2-propanol]
inhibition in vivo at 10 mg/kg (DBA/2N type mice): 76% | IC50 (Dopamine D2 receptor): 12 µM | IC50 (T-type Ca^2+ channel): 3 µM | LD50 at 24 h (Acute toxicity test): 47.3 mg/kg

COc1ccc(N)cc1OC[C@@H](O)CN1CCC(c2ccc(Oc3ccc(F)cc3)cc2)CC1 [Compound 42, (2S)-1-[(5-amino-2-methoxy)phenoxy]-3-[4-(4-(4-fluorophenoxy)phenyl)piperidin-1-yl]-2-propanol]
inhibition in vivo at 10 mg/kg (DBA/2N type mice): 50% | Anti-veratrizine effect (inhibiting rate %) (Sodium channel): 10.3%

COc1ccc(N)cc1OC[C@@H](O)CN1CCC(c2ccc(Cc3ccc(F)cc3)cc2)CC1 [Compound 43, (2S)-1-[(5-amino-2-methoxy)phenoxy]-3-[4-(4-(4-fluorophenyl)methylphenyl)piperidin-1-yl]-2-propanol]
inhibition in vivo at 10 mg/kg (DBA/2N type mice): 30% | Anti-veratrizine effect (inhibiting rate %) (Sodium channel): 21%

Cc1c(C)c(NCC(O)CN2CCC(c3ccc(Oc4ccccc4)cc3)CC2)c(C)c(C)c1N (stereo not drawn) [Compound 58, 3-[(4-amino-2,3,5,6-tetramethyl)phenylamino]-1-[4-(4-phenoxyphenyl)piperidin-1-yl]-2-propanol]
inhibition in vivo at 10 mg/kg (DBA/2N type mice): 68%

Cc1cc(C)c(OC[C@@H](O)CN2CCC(c3ccc(Oc4ccccc4)cc3)CC2)c(N)c1 [Compound 46, (2S)-1-[(2-amino-4,6-dimethyl)phenoxy]-3-[4-(4-phenoxyphenyl)piperidin-1-yl]-2-propanol]
inhibition in vivo at 10 mg/kg (DBA/2N type mice): 88%

Cc1cc(OC[C@@H](O)CN2CCC(c3ccc(Cc4ccc(F)cc4)cc3)CC2)c(C)c(C)c1N [Compound 27, (2S)-1-[(4-amino-2,3,5-trimethyl)phenoxy]-3-[4-(4-(4-fluorophenyl)methylphenyl)piperidin-1-yl]-2-propanol]
inhibition in vivo at 10 mg/kg (DBA/2N type mice): 55% | IC50 (lipid peroxidation): 0.46 µM | Anti-veratrizine effect (inhibiting rate %) (Sodium channel): 32.1% | IC50 (Dopamine D2 receptor): 6.3 µM

COc1ccc(NCC(O)CN2CCN(c3ccc(Cc4ccc(F)cc4)cc3)CC2)c(C)c1 (stereo not drawn) [Compound 55]
inhibition in vivo at 10 mg/kg (DBA/2N type mice): 70%

Cc1cc(N)c(C)c(C)c1OC[C@@H](O)CN1CCC(c2ccc(Oc3ccccc3)cc2)CC1 [Compound 38, (2S)-1-[(4-amino-2,3,6-trimethyl)phenoxy]-3-[4-(4-phenoxyphenyl)piperidin-1-yl]-2-propanol]
inhibition in vivo at 10 mg/kg (DBA/2N type mice): 92%

COc1ccc(NC[C@@H](O)CN2CCC(c3ccc(Oc4ccccc4)cc3)CC2)c(C)c1 [Compound 56, (2R)-1-[4-(4-phenoxyphenyl)piperidin-1-yl]-3-[(4-methoxy-2-methyl)phenylamino]-2-propanol]
Antiseizure effect (suppression rate %) (DBA/2N type mice): 64%

Cc1cc(OC[C@@H](O)CN2CCC(c3ccc(Oc4ccccc4)cc3)CC2)c(C)cc1N [Compound 32]
inhibition in vivo at 10 mg/kg (DBA/2N type mice): 70%

Cc1cc(OC[C@@H](O)CN2CCN(c3ccc(Cc4ccc(F)cc4)cc3)CC2)c(C)cc1N [Compound 34]
inhibition in vivo at 10 mg/kg (DBA/2N type mice): 74%

Cc1c(N)ccc(OC[C@@H](O)CN2CCC(c3ccc(Cc4ccc(F)cc4)cc3)CC2)c1C [Compound 36, (2S)-1-[(4-amino-2,3-dimethyl)phenoxy]-3-[4-(4-(4-fluorophenyl)methylphenyl)piperidin-1-yl]-2-propanol]
inhibition in vivo at 10 mg/kg (DBA/2N type mice): 68%

Cc1cc(C)c(OC[C@@H](O)CN2CCC(c3ccc(Cc4ccc(F)cc4)cc3)CC2)c(N)c1 [Compound 47, (2S)-1-[(2-amino-4,6-dimethyl)phenoxy]-3-[4-(4-(4-fluorophenyl)methylphenyl)piperidin-1-yl]-2-propanol]
inhibition in vivo at 10 mg/kg (DBA/2N type mice): 56%

COc1ccc(NCC(O)CN2CCC(c3ccc(Cc4ccc(F)cc4)cc3)CC2)c(C)c1 (stereo not drawn) [Compound 54]
inhibition in vivo at 10 mg/kg (DBA/2N type mice): 58%

Cc1cc(OC[C@@H](O)CN2CCC(c3ccc(Cc4ccc(F)cc4)cc3)CC2)c(C)cc1N [Compound 33, (2S)-1-[(4-amino-2,5-dimethyl)phenoxy]-3-[4-(4-(4-fluorophenyl)methylphenyl)piperidin-1-yl]-2-propanol]
inhibition in vivo at 10 mg/kg (DBA/2N type mice): 78%

COc1cc(Cl)c(N)cc1OC[C@@H](O)CN1CCC(c2ccc(Oc3ccccc3)cc2)CC1 [Compound 49, (2S)-1-[(5-amino-4-chloro-2-methoxy)phenoxy]-3-[4-(4-phenoxyphenyl)piperidin-1-yl]-2-propanol]
inhibition in vivo at 10 mg/kg (DBA/2N type mice): 42% | Anti-veratrizine effect (inhibiting rate %) (Sodium channel): 15.1%

COc1ccc(NCC(O)CN2CCC(c3ccc(Oc4ccccc4)cc3)CC2)c(C)c1 (stereo not drawn) [Compound 53, 1-[4-(4-phenoxyphenyl)piperidin-1-yl]-3-[(4-methoxy-2-methyl)phenylamino]-2-propanol]
Antiseizure effect (suppression rate %) (DBA/2N type mice): 46% | IC50 (Dopamine D2 receptor): 11 µM | IC50 (T-type Ca^2+ channel): 2.2 µM

Cc1cc(OC[C@@H](O)CN2CCC(c3ccc(Oc4ccccc4)cc3)CC2)c(C)c(C)c1N [Compound 26, (2S)-1-[(4-amino-2,3,5-trimethyl)phenoxy]-3-[4-(4-phenoxyphenyl)piperidin-1-yl]-2-propanol]
inhibition in vivo at 10 mg/kg (DBA/2N type mice): 74% | IC50 (Dopamine D2 receptor): 5.6 µM | IC50 (T-type Ca^2+ channel): 3.4 µM | LD50 at 24 h (Acute toxicity test): 41 mg/kg

Cc1cc(C)c(OC[C@@H](O)CN2CCN(c3ccc(Cc4ccc(F)cc4)cc3)CC2)c(N)c1 [Compound 48, (2S)-1-[(2-amino-4,6-dimethyl)phenoxy]-3-[4-(4-(4-fluorophenyl)methylphenyl)piperazin-1-yl]-2-propanol]
inhibition in vivo at 10 mg/kg (DBA/2N type mice): 70%

COc1ccc(N)cc1OC[C@@H](O)CN1CCC(c2ccc(OC3CCCC3)cc2)CC1 [Compound 45]
inhibition in vivo at 10 mg/kg (DBA/2N type mice): 44%

Cc1cc(OC[C@@H](O)CN2CCC(c3ccc(OC4CCCC4)cc3)CC2)c(C)c(C)c1N [Compound 31, (2S)-1-[(4-amino-2,3,5-trimethyl)phenoxy]-3-[4-(4-cyclopentyloxyphenyl)piperidin-1-yl]-2-propanol]
inhibition in vivo at 10 mg/kg (DBA/2N type mice): 74%

Cc1cc(OC[C@@H](O)CN2CCC(O)(c3ccc(-c4ccccc4)c(F)c3)CC2)c(C)c(C)c1N [Compound 30]
inhibition in vivo at 10 mg/kg (DBA/2N type mice): 44%

Nc1cc(Cl)c(OC[C@@H](O)CN2CCC(c3ccc(Oc4ccccc4)cc3)CC2)c(Cl)c1 [Compound 51, (2S)-1-[(4-amino-2,6-dichloro)phenoxy]-3-[4-(4-phenoxyphenyl)piperidin-1-yl]-2-propanol]
inhibition in vivo at 10 mg/kg (DBA/2N type mice): 74%

Cc1c(N)ccc(OC[C@@H](O)CN2CCC(c3ccc(Oc4ccccc4)cc3)CC2)c1C [Compound 35, (2S)-1-[(4-amino-2,3-dimethyl)phenoxy]-3-[4-(4-phenoxyphenyl)piperidin-1-yl]-2-propanol]
inhibition in vivo at 10 mg/kg (DBA/2N type mice): 74%

COc1ccc(NC[C@H](O)CN2CCC(c3ccc(Oc4ccccc4)cc3)CC2)c(C)c1 [Compound 57]
Antiseizure effect (suppression rate %) (DBA/2N type mice): 68%
